Question: With CCOC(=O)c1cn(C)c2c(=O)oc3ccccc3c2c1=O as the compound, how does the melting point read?
Answer: 203 to 208 °C

Question: For Cc1ccccc1-c1c(N)c(=O)oc2cc3c(cc12)CCC3, which melting point is on record?
Answer: 275 to 276 °C

Question: For Cc1ccc(-c2ccc(C(=O)Nc3ccc4cc(CN5CCCC5)cnc4c3C)c(F)c2)cc1, which melting point is on record?
Answer: 180 to 182 °C

Question: With Cc1noc(C)c1C(=O)Nc1ccc(-n2nc(C(F)(F)F)cc2C2CC2)c(F)c1 as the compound, how does the melting point read?
Answer: 163 to 165 °C

Question: For O=C(N[C@@H]1CCc2ccccc21)C(F)(F)F, which melting point is on record?
Answer: 152 to 153 °C

Question: For CCCC[C@]1(CC)CS(=O)(=O)c2cc(OC)c(Br)cc2[C@@H](c2ccccc2)N1, which melting point is on record?
Answer: 132 to 134 °C

Question: With C=CCC1=C(C)C(O)CC1=O (centres undefined) as the compound, how does the melting point read?
Answer: 130 to 132 °C

Question: Which melting point does the source give for COc1ccc(C2=NN(Cc3cccc(C(=O)NC4CCCC4)c3)C(=O)CC2)cc1OC here?
Answer: 179 °C

Question: Which melting point does the source give for CC(=O)NCC1CC1c1cccc2nc(C)nn12 (centres undefined) here?
Answer: 124 to 126 °C

Question: With O=C(N1CCCCC12CCc1ccccc1C2=O)C(F)(F)F (centres undefined) as the compound, how does the melting point read?
Answer: 97 to 100 °C

Question: With CC(=O)CCN(CCNC(=O)OC(C)(C)C)c1nc2cc(Cl)ccc2o1 as the compound, how does the melting point read?
Answer: 145 to 148 °C

Question: For O=C(NC(NCCc1ccccc1)C(Cl)(Cl)Cl)c1ccncc1 (centres undefined), which melting point is on record?
Answer: 115 to 117 °C

Question: For Cc1c(-c2ccccc2)oc2c(CN=[N+]=[N-])cccc2c1=O, which melting point is on record?
Answer: 132 to 134 °C

Question: With CCOC(=O)Nc1ccc2c(c1)c(N)nn2C(=O)OCC as the compound, how does the melting point read?
Answer: 173 to 174 °C

Question: For O=C(O)C(O)=CC(=O)c1cn(Cc2ccc(C(F)(F)F)cc2)c(=O)n(Cc2ccc(C(F)(F)F)cc2)c1=O, which melting point is on record?
Answer: 176 to 178 °C

Question: Which melting point does the source give for O=C(O)C1CCN(Cc2ccc(Cl)c(Cl)c2)CC1 here?
Answer: 232 °C

Question: For COc1ccc(CNC(=O)c2ccc3n2Cc2ccccc2N(C(=O)c2ccc(-c4ccccc4C)c(OC)c2)C3)cc1, which melting point is on record?
Answer: 178 to 179 °C

Question: For COC(=O)c1ccc(NC(=O)c2cc(C(C)C)c(C(C)C)s2)cc1OC, which melting point is on record?
Answer: 172 to 173 °C

Question: For Clc1ccccc1-c1nn2cc(-c3ccccc3)nc2s1, which melting point is on record?
Answer: 126 °C

Question: Which melting point does the source give for COCC(OC(C)=O)C1CC(=O)C2(C)CCC3C(CCC4=CC(=O)C=C(C)C43C)C12 (centres undefined) here?
Answer: 184 to 185 °C

Question: With CC(O)(C(=O)Nc1cc(S(=O)(=O)c2ccccc2)ccc1Cl)C(F)(F)F (centres undefined) as the compound, how does the melting point read?
Answer: 79 to 80 °C

Question: For CCN(CC)CCCNC(=O)Cn1ncc(-c2ccc(F)cc2)c1-c1ccccc1, which melting point is on record?
Answer: 82 to 83 °C

Question: With Cn1cc(-c2cccc(Cl)c2)c(=O)c(-c2ccccc2Cl)c1 as the compound, how does the melting point read?
Answer: 160 to 161 °C

Question: With Cc1c(C)c2c(c(C)c1NCc1ccccc1)C(=O)C(C)(C)O2 as the compound, how does the melting point read?
Answer: 98 to 99 °C

Question: With COC(=O)c1ccc([N+](=O)[O-])cc1C as the compound, how does the melting point read?
Answer: 73.6 °C

Question: Which melting point does the source give for COc1ccc(CCCCCCN)cc1 here?
Answer: 63 to 65 °C

Question: For CCC(C(=O)C(C)C(O)C(C)CCc1c(N)cc(C)c(O)c1C(=O)O)C1OC(CC)(C2CCC(O)(CC)C(C)O2)CC1C (centres undefined), which melting point is on record?
Answer: 223 to 225 °C

Question: With CC1(CN2CCC(OCc3ccc(Cl)cc3)CC2)Cn2cc([N+](=O)[O-])nc2O1 (centres undefined) as the compound, how does the melting point read?
Answer: 129 to 130 °C

Question: Which melting point does the source give for CCN(CC)C(=O)n1ccc(Sc2ccc(Cl)cc2Cl)n1 here?
Answer: 96 to 97 °C

Question: For CNC(=S)C1(c2ccc(Cl)nc2)CCCCC1=O (centres undefined), which melting point is on record?
Answer: 172 to 173 °C

Question: With Cc1c(NC(=O)CC(C)(C)C)cc2c(c1C)OC(C)(C)C2c1ccccc1C(C)C (centres undefined) as the compound, how does the melting point read?
Answer: 188 to 189 °C

Question: For CCc1cc(Cl)cc2[nH]c(=O)c(-c3ccccc3)c(O)c12, which melting point is on record?
Answer: 284 to 288 °C

Question: With COc1ccc(COC(=O)C(N)CCCCNC(=O)OC(C)(C)C)cc1 (centres undefined) as the compound, how does the melting point read?
Answer: 118 to 120 °C

Question: With CCCCC(=N)NC(=O)Nc1ccccc1O as the compound, how does the melting point read?
Answer: 173 to 175 °C

Question: Which melting point does the source give for CCCc1c(OCc2ccc(C=CC(=O)O)c(OC)c2)ccc(C(C)=O)c1O here?
Answer: 214 to 216 °C

Question: Which melting point does the source give for COc1ccc(S(=O)(=O)N2CCCC2c2ccc(F)cc2)cc1 (racemic) here?
Answer: 134 °C

Question: Which melting point does the source give for Cc1cc(CC(=O)O)sc1C(=O)c1ccccc1 here?
Answer: 86 °C

Question: Which melting point does the source give for Cc1nc(C)n(-c2cc([C@@H]3C[C@H]3c3nc4ccccc4n3C)nc(N)n2)n1 (relative stereo) here?
Answer: 120 to 122 °C

Question: For N#Cc1cc([N+](=O)[O-])ccc1N1CCC(O)CC1, which melting point is on record?
Answer: 114 to 115 °C

Question: Which melting point does the source give for C[C@H](NC(=O)c1ncc[nH]1)C(=O)NC(C=O)CC(=O)O (some centres undefined) here?
Answer: 115 °C

Question: Which melting point does the source give for CC1=C(C(=O)O)C(c2ccc(F)c(Br)c2)C2=C(CCC2=O)N1 (centres undefined) here?
Answer: 211 to 214 °C

Question: With CC(C)Nc1cccnc1N1CCN(C(=O)c2ccc(C(=O)N3CCOCC3)cc2)CC1 as the compound, how does the melting point read?
Answer: 139 °C

Question: Which melting point does the source give for Cc1c(-c2ccccc2)sc2c1c(=O)c(C(=O)O)cn2Cc1c(F)cccc1F here?
Answer: 286 to 289 °C

Question: Which melting point does the source give for CN1C(=O)[C@@H](NC(=O)[C@H](N)Cc2ccccc2)N=C(C2CCCCC2)c2ccccc21 here?
Answer: 75 to 78 °C

Question: Which melting point does the source give for COc1ccc(-c2csc(CO)c2)cc1 here?
Answer: 136 to 138 °C

Question: With CC(O)c1ccc(C(C)Oc2cncc(C(=O)Nc3ccc(C#N)cc3)c2)cc1 (centres undefined) as the compound, how does the melting point read?
Answer: 179 to 181 °C

Question: Which melting point does the source give for O=C(COc1cc(F)ccc1C(=O)NCc1cccc([N+](=O)[O-])c1)OCc1ccccc1 here?
Answer: 95 to 98 °C

Question: With N#CC(C(=O)Nc1cccc(Br)c1)C(=O)c1nn(-c2ccccc2)c2c1Cc1ccccc1-2 (centres undefined) as the compound, how does the melting point read?
Answer: 289 to 290 °C

Question: Which melting point does the source give for O=C(Nc1cccc(-c2cccc(-n3c(=O)c(Cc4cccnc4)nc4cccnc43)c2)c1)C(F)(F)F here?
Answer: 138 to 144 °C

Reference: a melting point compilation (Tetko et al.; mined from patent text by program, amines drawn as free bases though some values may be those of a salt)
